Results from PubChem BioAssay AID1552 (Sanford-Burnham Center for Chemical Genomics, 2009).
Calls of active or inactive are those of the source. No rule for the calls is given here.

The compounds below were run against Ubiquitin-conjugating enzyme E2 N (Homo sapiens) (UniProt P61088) (assay: NMR detection of UBE2N ligand binding – biophysical, purified protein (AID 1552)). Details: NMR binding to purified UBE2N.
Chain of Ubiquitin-conjugating enzyme E2 N (Homo sapiens) (P61088 whole entry, looked up): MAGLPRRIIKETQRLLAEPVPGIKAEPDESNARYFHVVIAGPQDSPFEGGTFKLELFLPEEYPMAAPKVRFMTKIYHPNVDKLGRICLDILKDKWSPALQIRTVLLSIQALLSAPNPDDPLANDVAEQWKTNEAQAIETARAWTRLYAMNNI

| SMILES | Kd |
| --- | --- |
| O=C(O)c1cc(F)cc2c1OCOC2 | > 4 mM (inactive) |
| CN(C)S(=O)(=O)c1ccccc1C#N | > 4 mM (inactive) |
| N=c1c2c3c(sc2ncn1N)CCCC3 | > 4 mM (inactive) |
| Cn1cnnc1Sc1ncnc(N)c1[N+](=O)[O-] | > 4 mM (inactive) |
| Nc1ccc2ncsc2c1 | > 4 mM (inactive) |
| Cc1cc(C)n2nc(C(=O)NCc3ccco3)nc2n1 | > 4 mM (inactive) |
| CCN(CC)S(=O)(=O)c1cccc2nsnc12 | > 4 mM (inactive) |
| COc1c2c(cc3c1OCO3)CCN(C)C2 | > 4 mM (inactive) |
| Oc1ccc(-n2cncn2)cc1 | > 4 mM (inactive) |
| CS(=O)(=O)NC1CCN(Cc2ccccc2)CC1 | > 4 mM (inactive) |
| O=C(NCO)c1ccccc1Cl | > 4 mM (inactive) |
| O=C1N=c2ccccc2=C1c1[nH]c(=S)[nH]c1O | > 4 mM (inactive) |
| Cc1cc(C)n(-c2ccc(N)cc2)n1 | > 4 mM (inactive) |
| O=C1c2ccc(F)cc2C(=O)N1CO | > 4 mM (inactive) |
| O=C(Nc1nc2ccccc2s1)c1ccc(=O)[nH]n1 | > 4 mM (inactive) |
| COc1ccccc1NC(C)=O | > 4 mM (inactive) |
| CC(=O)NC(=S)Nc1ccccc1C | > 4 mM (inactive) |
| O=S(=O)(c1cccc2cccnc12)N1CCOCC1 | > 4 mM (inactive) |
| O=C(O)c1coc2c1C(=O)CCC2 | > 4 mM (inactive) |
| CS(=O)(=O)Nc1cc2c3c(c1)CCN3C(=O)CC2 | > 4 mM (inactive) |
| NC1=NC(=O)C(Cc2cccc([N+](=O)[O-])c2)S1 (stereo not drawn) | > 4 mM (inactive) |
| O=C(CC1Nc2ccccc2NC1=O)Nc1ccc(O)cc1 (stereo not drawn) | > 4 mM (inactive) |
| NC(=O)CC1Sc2ccccc2NC1=O (stereo not drawn) | > 4 mM (inactive) |
| Cc1ccc(SCCN2C(=O)NC(C)(C)C2=O)cc1 | > 4 mM (inactive) |
| COC(=O)c1cccc(Cn2nnc3ccccc3c2=O)c1 | > 4 mM (inactive) |

| SMILES | Kd |
| --- | --- |
| COc1cccc(-c2nc(-c3ccccn3)no2)c1OC | > 4 mM (inactive) |
| COc1cc2c(cc1OC)[C@@]13CCN4CC5=CCOC6CC(=O)N2C1[C@H]6[C@H]5C[C@H]43 (stereo partly drawn) | > 4 mM (inactive) |
| Cc1cc(SCCF)n2ncnc2n1 | > 4 mM (inactive) |
| Cn1c(O)c(C=NCC2CCNCC2)c(=O)n(C)c1=O | > 4 mM (inactive) |
| Cn1cccc1C(=O)NS(=O)(=O)c1ccccc1Cl | > 4 mM (inactive) |
| CCOC(=O)C1=C(O)CCN(C)C1 | > 4 mM (inactive) |
| Nc1nc(-c2ccccc2)cc(=O)[nH]1 | > 4 mM (inactive) |
| NC12CC3CC(C1)CC(O)(C3)C2 | > 4 mM (inactive) |
| Cc1ccc2c(c1)CCCN2C(=O)c1c(C)noc1C | > 4 mM (inactive) |
| Cc1ccc(S(=O)(=O)CCc2ccccn2)cc1 | > 4 mM (inactive) |
| COC(=O)c1ccc2nc[nH]c2c1 | > 4 mM (inactive) |
| O=C(O)CCS(=O)(=O)c1ccccc1 | > 4 mM (inactive) |
| O=C(/C=C/c1ccc(O)cc1)c1ccc(O)cc1O | > 4 mM (inactive) |
| CNC(=O)C1CC(=O)N(c2ccc(O)cc2)C1 (stereo not drawn) | > 4 mM (inactive) |
| Cc1nnc(SCc2ccon2)n1-c1ccccc1 | > 4 mM (inactive) |
| CC(=O)Nc1sccc1C(=O)NC(N)=O | > 4 mM (inactive) |
| Cn1cnc2c1c(=O)[nH]c(=O)n2C | > 4 mM (inactive) |
| Cn1c(SCC(=O)NCCO)nc2ccccc2c1=O | > 4 mM (inactive) |
| CN1CC(=O)Nc2ccc([N+](=O)[O-])cc2C1=O | > 4 mM (inactive) |
| CN1CCN(C(=O)c2ccccc2N)CC1 | > 4 mM (inactive) |
| Cc1ccc(-c2nc(N)n(C(=O)c3cccnc3)n2)cc1 | > 4 mM (inactive) |
| NC(=O)N1CCc2ccccc21 | > 4 mM (inactive) |
| c1ccc(-n2nnnc2-n2cnc3ccccc32)cc1 | > 4 mM (inactive) |
| CC(=O)Nc1c(C)n(C)n(-c2ccccc2)c1=O | > 4 mM (inactive) |
| Nc1ncnc(NC2CCS(=O)(=O)C2)c1[N+](=O)[O-] (stereo not drawn) | > 4 mM (inactive) |

| SMILES | Kd |
| --- | --- |
| Cc1cccc(NC(=O)NC(N)=O)c1 | > 4 mM (inactive) |
| Fc1ccc(NC2=NCCS2)cc1Cl | > 4 mM (inactive) |
| NCc1ccc2c(c1)OCCO2 | > 4 mM (inactive) |
| Cc1nc(N)sc1C(=O)N/N=C/c1ccncc1 | > 4 mM (inactive) |
| CC(=O)Nc1ccc2c(c1)C(=O)N(C1CCCCC1)C2=O | > 4 mM (inactive) |
| O=C(Nc1ccncc1)c1cncc(Br)c1 | > 4 mM (inactive) |
| c1ccc(-c2nnc3sc(-c4ccncc4)nn23)cc1 | > 4 mM (inactive) |
| CC(=O)c1cc2c(cc1O)OC(C)(C)C=C2 | > 4 mM (inactive) |
| CCOC(=O)c1nc2ccccc2c(=O)n1N | > 4 mM (inactive) |
| COCCn1cnc2cc(C)c(C)cc21 | > 4 mM (inactive) |
| Cc1oc(-c2ccccc2)cc1C(=O)O | > 4 mM (inactive) |
| Cc1cc(SCC(=O)Nc2nccs2)nc(=O)[nH]1 | > 4 mM (inactive) |
| CC1=C(C(N)=O)C(c2ccco2)C(C(N)=O)=C(C)N1 | > 4 mM (inactive) |
| COc1ccc(Cl)cc1-c1n[nH]c(=S)n1C | > 4 mM (inactive) |
| CC(C)CCCC1(C)C=Cc2c(O)c3c(c(CCC(C)C)c2O1)OC12C(CC4CC1C(C)(C)OC2(CCC(C)C(=O)O)C4O)C3=O (stereo not drawn) | > 4 mM (inactive) |
| NCCCCNCCCN | > 4 mM (inactive) |
| N[C@@H](Cc1cc(I)c(Oc2cc(I)c(O)c(I)c2)c(I)c1)C(=O)O | > 4 mM (inactive) |
| Cc1nc(CC(=O)O)c(-c2ccccc2)s1 | > 4 mM (inactive) |
| Cc1nn(C)c(Cl)c1S(=O)(=O)N1CCOCC1 | > 4 mM (inactive) |
| Cc1c(C(=O)Nc2cnccn2)oc2ccccc12 | > 4 mM (inactive) |
| O=C1CS/C(=N/N=C/c2cccs2)N1 | > 4 mM (inactive) |
| O=C(NC12CC3CC(CC(C3)C1)C2)c1cnccn1 | > 4 mM (inactive) |
| NCc1ccc(-n2cccn2)cc1 | > 4 mM (inactive) |
| Cc1ccc(-c2nc(-c3cccnc3)no2)cc1 | > 4 mM (inactive) |
| O=C(c1ccccc1)c1ccccc1C(=O)N1CCCC1 | > 4 mM (inactive) |

| SMILES | Kd |
| --- | --- |
| COC(=O)CC1=Nc2ccccc2NC(=O)C1 | > 4 mM (inactive) |
| COc1ccc2cc1Oc1ccc(cc1)C[C@H]1c3c(cc4c(c3Oc3cc5c(cc3OC)CCN(C)[C@@H]5C2)OCO4)CCN1C | > 4 mM (inactive) |
| Cc1nnc2n(c1=O)N=C(c1ccccc1)CS2 | > 4 mM (inactive) |
| Cc1nn(-c2ccccc2C(=O)O)c(=O)c2ccccc12 | > 4 mM (inactive) |
| COc1cc(OC)c2c(c1)O[C@H](c1ccc(OC)c(OC)c1)[C@@H](O)C2 | > 4 mM (inactive) |
| O=c1n(-c2cccc(Cl)c2)c(=O)n2n1CCC2 | > 4 mM (inactive) |
| N=c1n(N)c2ccccc2n1CCO | > 4 mM (inactive) |
| Nc1cccnc1N1CCOCC1 | > 4 mM (inactive) |
| Cc1ccc(C(C)C)cc2c(C)ccc1-2 | > 4 mM (inactive) |
| CCn1nnc(NC(=O)c2ccccc2Br)n1 | > 4 mM (inactive) |
| O=c1[nH]cc(CN2CCOCC2)c(=O)[nH]1 | > 4 mM (inactive) |
| CC1(C)Cc2nc3n[nH]c(N)c3cc2CO1 | > 4 mM (inactive) |
| CS(=O)(=O)N1CCN(c2ccccc2F)CC1 | > 4 mM (inactive) |
| CN(C)C1CCS(=O)(=O)C1 (stereo not drawn) | > 4 mM (inactive) |
| COc1c(O)cccc1O | > 4 mM (inactive) |
| c1ccc2[nH]c(SCc3cscn3)nc2c1 | > 4 mM (inactive) |
| CCc1noc(C)c1C(=O)N1CCOCC1 | > 4 mM (inactive) |
| CC(C)C(C)/C=C/C(C)C1CCC2C3=CC=C4CC(O)CCC4(C)C3CCC21C (stereo not drawn) | > 4 mM (inactive) |
| Cc1nn(C)c2sc(CO)cc12 | > 4 mM (inactive) |
| CC(=O)NC(c1ccccc1)c1cccnc1 (stereo not drawn) | > 4 mM (inactive) |
| CCOc1ccc(C(=O)c2ccc(OC)c(O)c2O)cc1 | > 4 mM (inactive) |
| Cc1ccc(N2C(=O)C3C4C=CC(O4)C3C2=O)cc1 (stereo not drawn) | > 4 mM (inactive) |
| O=C(O)CN1C(=O)c2cccc([N+](=O)[O-])c2C1=O | > 4 mM (inactive) |
| Cc1cccc(OCc2nnc(N)s2)c1 | > 4 mM (inactive) |
| CC(=O)O[C@H]1CC[C@@]2(C)C(C[C@@H](OC(C)=O)[C@@]3(C)C4=CC(=O)O[C@@H](c5ccoc5)[C@]4(C)CCC23)C1(C)C (stereo partly drawn) | > 4 mM (inactive) |

| SMILES | Kd |
| --- | --- |
| CC(=O)c1c(C)nn(CC(=O)O)c1C | > 4 mM (inactive) |
| CN1CCn2c1nc(N1CCOCC1)nc2=O | > 4 mM (inactive) |
| CCN1C(=O)c2c(C)nc3ccccc3c2C1=O | > 4 mM (inactive) |
| CCOc1ccc(C)cc1S(=O)(=O)n1ccnc1 | > 4 mM (inactive) |
| CC(=O)OCC(=O)[C@@]1(O)CCC2C3CC[C@@H]4C[C@H](O)CC[C@]4(C)C3C(=O)C[C@@]21C (stereo partly drawn) | > 4 mM (inactive) |
| CC(O)c1ccc(C(C)O)cc1 (stereo not drawn) | > 4 mM (inactive) |
| Cc1cc(=O)n(CC(C)C)c(O)c1C#N | > 4 mM (inactive) |
| Cc1ccc(C(=O)Nc2c[nH]c(=O)[nH]c2=O)cc1 | > 4 mM (inactive) |
| CC1(O)CC2C=CC1C2 (stereo not drawn) | > 4 mM (inactive) |
| Cc1nc(N2CCOCC2)[nH]c(=O)c1C | > 4 mM (inactive) |
| Cc1noc(C)c1C(=O)NC1=NCCS1 | > 4 mM (inactive) |
| O=C1c2ccccc2C(=O)N1Cc1ccco1 | > 4 mM (inactive) |
| c1ccc(-c2n[nH]c(-c3ccccn3)n2)nc1 | > 4 mM (inactive) |
| NCCCCN | > 4 mM (inactive) |
| O=C(Nc1ccccc1)C(=O)NC1CC1 | > 4 mM (inactive) |
| OCc1cccs1 | > 4 mM (inactive) |
| Cn1c(CSc2nc3ccccc3s2)n[nH]c1=S | > 4 mM (inactive) |
| Nc1oncc1-c1ccccn1 | > 4 mM (inactive) |
| COC(=O)C1=C(C)N(Cc2ccco2)C(=O)C1 | > 4 mM (inactive) |
| Cc1ccccc1NS(=O)(=O)c1ccc(F)cc1 | > 4 mM (inactive) |
| CCOC(=O)c1[nH]cnc1C(=O)OC(C)C | > 4 mM (inactive) |
| O=C1NC(=O)C(C(C[N+](=O)[O-])c2ccc(O)cc2)C(=O)N1 (stereo not drawn) | > 4 mM (inactive) |
| O=C(O)/C=C/c1ccc(O)c(O)c1 | > 4 mM (inactive) |
